In ChEMBL document CHEMBL4831486, “Design, synthesis and biological evaluation of pleuromutilin-Schiff base hybrids as potent anti-MRSA agents in vitro and in vivo” (Eur J Med Chem, 2021):
≈ marks a conversion by molar mass, not a printed value.

Columns and labels:
[1] = system: Escherichia coli; assay: Bactericidal activity against Escherichia coli ATCC 25922 assessed as inhibition of bacterial growth measured after 96 hrs by broth dilution method; assay type: functional
[2] = system: Escherichia coli; assay: Antibacterial activity against Escherichia coli ATCC 25922 assessed as inhibition of bacterial growth measured after 24 hrs by broth dilution method; assay type: functional
[3] = system: Staphylococcus aureus; assay: Bactericidal activity against Methycillin-resistant Staphylococcus aureus ATCC 43300 assessed as inhibition of bacterial growth measured after 96 hrs by broth dilution method; assay type: functional
[4] = system: Staphylococcus aureus; assay: Antibacterial activity against Methycillin-resistant Staphylococcus aureus ATCC 43300 assessed as inhibition of bacterial growth measured after 24 hrs by broth dilution method; assay type: functional
[5] = system: Staphylococcus aureus; assay: Antibacterial activity against Staphylococcus aureus 144 assessed as inhibition of bacterial growth measured after 24 hrs by broth dilution method; assay type: functional
[6] = system: Staphylococcus aureus; assay: Bactericidal activity against Staphylococcus aureus 144 assessed as inhibition of bacterial growth measured after 96 hrs by broth dilution method; assay type: functional
[7] = system: Staphylococcus aureus; assay: Bactericidal activity against Staphylococcus aureus AD3 assessed as inhibition of bacterial growth measured after 96 hrs by broth dilution method; assay type: functional
[8] = system: Staphylococcus aureus; assay: Antibacterial activity against Staphylococcus aureus ATCC 29213 assessed as inhibition of bacterial growth measured after 24 hrs by broth dilution method; assay type: functional
[9] = system: Staphylococcus aureus; assay: Bactericidal activity against Staphylococcus aureus ATCC 29213 assessed as inhibition of bacterial growth measured after 96 hrs by broth dilution method; assay type: functional
[10] = system: HepG2; assay: Cytotoxicity against human HepG2 cells assessed as reduced cell viability at 4 ug/ml measured after 16 hrs by MTT assay; assay type: cell-based; conditions: hepg2, 16 h, dose 4 µg/ml
[11] = system: RAW264.7; assay: Cytotoxicity against mouse RAW264.7 cells assessed as reduced cell viability at 4 ug/ml measured after 16 hrs by MTT assay; assay type: cell-based; conditions: raw264.7, 16 h, dose 4 µg/ml
[12] = system: Staphylococcus aureus; assay: Antibacterial activity against Staphylococcus aureus AD3 assessed as inhibition of bacterial growth measured after 24 hrs by broth dilution method; assay type: functional

| Compound | MBC [1] | MIC [2] | MBC [3] | MIC [4] | MIC [5] | MBC [6] | MBC [7] | MIC [8] | MBC [9] | Activity [10] | Activity [11] | MIC [12] |
| --- | --- | --- | --- | --- | --- | --- | --- | --- | --- | --- | --- | --- |
| C=C[C@]1(C)C[C@@H](OC(=O)CSc2nnc(C)n2/N=C/c2ccccc2Cl)[C@]2(C)[C@H](C)CC[C@]3(CCC(=O)[C@H]32)[C@@H](C)[C@@H]1O | > 64 µg/mL | > 64 µg/mL | 2 µg/mL (≈ 3.26 µM) | 1 µg/mL (≈ 1.63 µM) | 2 µg/mL (≈ 3.26 µM) | 4 µg/mL (≈ 6.52 µM) | 4 µg/mL (≈ 6.52 µM) | 1 µg/mL (≈ 1.63 µM) | 2 µg/mL (≈ 3.26 µM) | Non-Toxic | Non-Toxic | 1 µg/mL (≈ 1.63 µM) |
| C=C[C@]1(C)C[C@@H](OC(=O)CSc2nnc(C)n2/N=C/c2ccccc2[N+](=O)[O-])[C@]2(C)[C@H](C)CC[C@]3(CCC(=O)[C@H]32)[C@@H](C)[C@@H]1O | > 64 µg/mL | > 64 µg/mL | 1 µg/mL (≈ 1.6 µM) | 0.5 µg/mL (≈ 0.802 µM) | 2 µg/mL (≈ 3.21 µM) | 8 µg/mL (≈ 12.8 µM) | 8 µg/mL (≈ 12.8 µM) | 1 µg/mL (≈ 1.6 µM) | 4 µg/mL (≈ 6.41 µM) | Non-Toxic | Non-Toxic | 2 µg/mL (≈ 3.21 µM) |
| C=C[C@]1(C)C[C@@H](OC(=O)CSc2nnc(C)n2/N=C/c2ccccc2O)[C@]2(C)[C@H](C)CC[C@]3(CCC(=O)[C@H]32)[C@@H](C)[C@@H]1O | > 64 µg/mL | > 64 µg/mL | 1 µg/mL (≈ 1.68 µM) | 0.5 µg/mL (≈ 0.841 µM) | 2 µg/mL (≈ 3.36 µM) | 4 µg/mL (≈ 6.73 µM) | 4 µg/mL (≈ 6.73 µM) | 1 µg/mL (≈ 1.68 µM) | 2 µg/mL (≈ 3.36 µM) | Non-Toxic | Non-Toxic | 1 µg/mL (≈ 1.68 µM) |
| C=C[C@]1(C)C[C@@H](OC(=O)CSc2nnc(C)n2/N=C/c2ccc(F)cc2)[C@]2(C)[C@H](C)CC[C@]3(CCC(=O)[C@H]32)[C@@H](C)[C@@H]1O | > 64 µg/mL | > 64 µg/mL | 2 µg/mL (≈ 3.35 µM) | 1 µg/mL (≈ 1.68 µM) | 2 µg/mL (≈ 3.35 µM) | 4 µg/mL (≈ 6.7 µM) | 4 µg/mL (≈ 6.7 µM) | 1 µg/mL (≈ 1.68 µM) | 4 µg/mL (≈ 6.7 µM) | Non-Toxic | Non-Toxic | 1 µg/mL (≈ 1.68 µM) |
| C=C[C@]1(C)C[C@@H](OC(=O)CSc2nnc(C)n2/N=C/c2cccc(C)c2)[C@]2(C)[C@H](C)CC[C@]3(CCC(=O)[C@H]32)[C@@H](C)[C@@H]1O | > 64 µg/mL | > 64 µg/mL | 2 µg/mL (≈ 3.37 µM) | 1 µg/mL (≈ 1.69 µM) | 2 µg/mL (≈ 3.37 µM) | 4 µg/mL (≈ 6.75 µM) | 4 µg/mL (≈ 6.75 µM) | 1 µg/mL (≈ 1.69 µM) | 2 µg/mL (≈ 3.37 µM) | Non-Toxic | Non-Toxic | 1 µg/mL (≈ 1.69 µM) |
| C=C[C@]1(C)C[C@@H](OC(=O)CSc2nnc(C)n2/N=C/c2cccc([N+](=O)[O-])c2)[C@]2(C)[C@H](C)CC[C@]3(CCC(=O)[C@H]32)[C@@H](C)[C@@H]1O | > 64 µg/mL | > 64 µg/mL | 2 µg/mL (≈ 3.21 µM) | 1 µg/mL (≈ 1.6 µM) | 2 µg/mL (≈ 3.21 µM) | 4 µg/mL (≈ 6.41 µM) | 8 µg/mL (≈ 12.8 µM) | 2 µg/mL (≈ 3.21 µM) | 8 µg/mL (≈ 12.8 µM) | Non-Toxic | Non-Toxic | 2 µg/mL (≈ 3.21 µM) |
| C=C[C@]1(C)C[C@@H](OC(=O)CSc2nnc(C)n2/N=C/c2ccccc2C)[C@]2(C)[C@H](C)CC[C@]3(CCC(=O)[C@H]32)[C@@H](C)[C@@H]1O | > 64 µg/mL | > 64 µg/mL | 2 µg/mL (≈ 3.37 µM) | 1 µg/mL (≈ 1.69 µM) | 2 µg/mL (≈ 3.37 µM) | 4 µg/mL (≈ 6.75 µM) | 4 µg/mL (≈ 6.75 µM) | 1 µg/mL (≈ 1.69 µM) | 2 µg/mL (≈ 3.37 µM) | Non-Toxic | Non-Toxic | 1 µg/mL (≈ 1.69 µM) |
